Source: patent US20230041065A1, “METHODS FOR GENERATING HEMATOPOIETIC STEM CELLS” (The Brigham and Women`s Hospital, Inc., priority 2019, published 2023)
Entries after “also recorded” stand apart in the source; their conditions may differ.

Legend:
human PSCs = test: FACS analyses of hematopoietic differentiation of human PSCs (embryoid bodies); format: cell-based
Protocol: Embryoid body and hemogenic endothelium differentiation was performed as described in (Sugimura et al. 2017; Ditadi et al. 2015). Briefly, hiPSC colonies were dissociated with 0.05% trypsin for 5 min at 37° C., washed with PBS+2% FBS, and resuspended in StemPro-34 (Invitrogen, 10639-011) supplemented with L-glutamine (2 mM), penicillin/streptomycin ([…]), ascorbic acid (1 mM), human holo-Transferrin ([…], Sigma T0665), monothioglycerol (MTG, 0.4 mM), BMP4 (10 ng/ml), and Y-27632 (10 μM). Five million cells were seeded into 10 cm dishes (Ezsphere, Asahi Glass) for the spheroid formation. On Day 1, bFGF (5 ng/ml) and BMP4 (10 ng/ml) was added to the medium. On Day 2, the media was changed with the StemPro-34 supplemented with SB431542 (6 μM), CHIR99021 (3 μM), bFGF (5 ng/ml), and BMP4 (10 ng/ml). On Day 3, the medium was replaced with StemPro-34 supplemented with VEGF (15 ng/ml) and bFGF (10 ng/ml). On day 6, the medium was changed to StemPro-34 supplemented with bFGF (5 ng/ml), VEGF (15 ng/ml), interleukin (IL)-6 (10 ng/ml), IGF-1 (25 ng/ml), IL-11 (5 ng/ml), SCF (50 ng/ml) and EPO (2IU). The cells were maintained in a 5% CO2, 5% O2 and 95% humidity incubator. All cytokines were purchased from Peprotech.
To isolate the CD34^+ cells, the embryoid bodies (from day 8) were dissociated by 0.05% trypsin, filtered through a 70 μm strainer, CD34^+ cells were isolated by CD34 magnetic bead staining, and subsequently passaged through the LS columns (Miltenyi). A sample from every batch was tested by FACS to validate its purity with the panel. The following antibodies were employed: CD34-PEcy7 (Clone 581; Biolegend), FLK1-PE (CLONE #89106; BD), and 4′,6-diamidino-2-phenylindole (DAPI).
Isolated CD34^+ cells were resuspended in StemPro-34 medium containing Y-27632 (10 μM), TPO (30 ng/ml), IL-3 (10 ng/ml), SCF (50 ng/ml), IL-6 (10 ng/ml), IL-11 (5 ng/ml), IGF-1 (25 ng/ml), VEGF (5 ng/ml), bFGF (5 ng/ml), BMP4 (10 ng/ml), and FLT3 (10 ng/ml) (Ferrel et al 2015). Cells were seeded at a density of 50,000 cells per well onto thin-layer Matrigel-coated 24-well plates. […]

[1] = tested on: donor-derived blood lineages; test: Functional and phenotypic analyses of donor-derived blood lineages in primary transplant; format: in vivo, mouse
Protocol: Pulsating blood vessels like conditions were stimulated in vitro using Flexcell FX-4000 machine. To analyze roles of pharmacological targets in regulating the endothelial-to-HSC transition, mouse embryo-derived AGM or whole mouse embryo were exposed ex vivo with biomechanical stretching, chemicals, or drugs. Next, hematopoietic colony formation assays were performed by incubating mouse AGM-derived cells in StemCell M3434 media for seven days. Serial transplantation of AGM-derived HSCs in lethally irradiated SJL mice were performed. The stem cell frequency upon biomechanical stretching was analyzed using a limiting dilution assay. To characterize properties of AGM-HSC-derived blood cells in primary transplants, percentage chimerism and reconstitution was measured using FACS, globin transcripts were analyzed using quantitative reverse transcriptase-PCR, myeloperoxidase amount was measured using PicoKine ELISA kit, TCR-β rearrangement was analyzed using PCR for TCR-β locus, pre-immune IG detection was analyzed using Thermo-Fisher Mouse Ig Isotyping kit, and delayed-type hypersensitivity was analyzed by injecting sheep RBC (Rockland Immunochemicals) in the footpad of pre-sensitized mice.
FACS was used to sort erythroid precursors (Cd45.2^+, Ter119^+, Cd71^+) from the unlysed bone marrow isolated from AGM-transplanted mice. Total RNA was isolated using the RNAeasy Minikit (QIAGEN) and cDNA synthesis performed using Superscript III (Invitrogen). Quantitative real-time PCR was performed using SYBR Green (QuantaBio) on an MX3000P machine with the indicated primers (Sankaran et al., 2009). We normalized the expression to that of glyceraldehyde-3-phosphate-dehydrogenase (Gapdh) (Ochida et al., 2010).
Neutrophils (Cd45.2^+, Gr1^+, Mac1^+) were FACS sorted from the isolated bone marrow of 16 week-primary transplanted mice and cultured in IMDM with 10% FBS overnight (500,000 cells/mL) in 24-well plates. Supernatant was collected and the MPO concentration measured using the Mouse MPO/Myeloperoxidase PicoKine™ ELISA Kit (Boster). The MPO concentration was also measured in blood serum.
T cells (Cd45.2^+, Cd3^+) and myeloid cells (Cd45.2^+, Mac1^+) were FACS sorted from the splenocytes of 16 week-primary transplanted mice. Next, genomic DNA was extracted, and PCR performed for DH (β2.1-JH (32.7 rearrangements within TCR-β locus. Our samples were denatured (94° C., 1 min), annealed (63° C., 2 mins) and extended (72° C., 2 mins) for 35 cycles. Primer sequences are as follows:
Transplant mice were sensitized with sheep red blood cells (sRBC, 10^9 cells/mL, 50 μL per site, Rockland Immunochemicals) through subcutaneous (lower back) and intradermal injections (right footpad). […] After 48 hours of the challenge, the footpad thickness was measured with a micro-caliper. […]

## Clc1cccc(Cl)c1CSc1nnc(-c2cnccn2)s1 [Yoda1, 2-[5-[[(2,6-Dichlorophenyl)methyl]thio]-1,3,4-thiadiazol-2-yl]-pyrazine]
Human PSCs; FIG. 7C
  improvement in the number of HSCs produced from hPSCs: 2 Fold
Human PSCs; day 8+7 of hematopoietic differentiation
  formation of CD34+CD90+ HSCs: enhances the formation of HSCs from hPSC
Human PSCs; embryoid bodies, day 8, control and PIEZO1-/- PSCs
  formation of hCD43negCD235negCD144+CD34+ HECs: enhances the formation of hCD43^negCD235^negCD144^+CD34^+ HE cells in control but not in PIEZO1^−/− PSCs; also recorded: enhances the formation of hCD43^negCD235^negCD144^+CD34^+ HECs in control but not in PIEZO1^−/− PSCs
[1]; bone marrow Cd71+Ter119+ sorted cells, primary transplant
  expression of adult and embryonic hemoglobin types in donor erythroid cells: reconstitutes to red cells containing adult hemoglobin
[1]; bone marrow Gr1+Mac1+ sorted cells, overnight culture, ELISA
  myeloperoxidase (MPO) of donor neutrophils: reconstitute to functional myeloid cells displaying sufficient MPO levels
[1]; primary transplant mice, footpad
  delayed-type hypersensitivity: possess T-cell mediated immune response
[1]; spleen-sorted Cd3+ T cells
  TCRβ locus rearrangement of donor T cells: display T-cell receptor β (TCR β) rearrangement
